{"source": "PubChem BioAssay AID2740", "about": "(NMMLSC, 2010)", "note": "The source made the active and inactive calls.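 How the source made its calls: active means compounds whose fitted half-maximal concentration for changing the GFP signal is at or below a set limit; inactive means the rest.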", "data": [{"test": "TOR pathway RPL19A-GFP modulators, concentration series – cell-based, S. cerevisiae, flow cytometry, MLPCN hits, dose response (AID 2740);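 further: background is signal of the same compound in parental non-GFP s288c yeast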", "settings": "S. cerevisiae RPL19A-GFP strain, flow cytometry fluorescence, 3 h; at 33 µM (top of the series)", "values": [{"smiles": "Cc1ccc(S(=O)(=O)N2CCCC2C(=O)NCc2ccncc2)cc1", "note": "(stereo not given)", "GFP fluorescence, lower = active (kMESF (background-subtracted))": "39.8 (inactive)"}, {"smiles": "O=C1C=CC(=O)N1c1ccc(OC(F)F)cc1", "GFP fluorescence, lower = active (kMESF (background-subtracted))": "14.7 (inactive)"}, {"smiles": "C/C(=N\\Nc1ncnc2sc(C)c(C)c12)c1ccccn1", "GFP fluorescence, lower = active (kMESF (background-subtracted))": "-2.55 (inactive)"}, {"smiles": "Cc1cccc(N=Nc2ccc(O)c3ncccc23)c1", "GFP fluorescence, lower = active (kMESF (background-subtracted))": "33.3 (inactive)"}, {"smiles": "O=C(NOC(=O)c1ccccc1)c1ccccc1", "GFP fluorescence, lower = active (kMESF (background-subtracted))": "38.1 (inactive)"}, {"smiles": "Cc1cccc(N=C2NC(=O)/C(=C/C=C/c3ccco3)S2)c1C", "GFP fluorescence, lower = active (kMESF (background-subtracted))": "34.7 (inactive)"}, {"smiles": "N/C(Cc1ccc(Cl)cc1)=N\\OC(=O)c1cccc2ccccc12", "GFP fluorescence, lower = active (kMESF (background-subtracted))": "45.3 (inactive)"}, {"smiles": "CN1CCN(C(c2ccc(C(F)(F)F)cc2)c2ccc3cccnc3c2O)CC1", "note": "(stereo not given)", "GFP fluorescence, lower = active (kMESF (background-subtracted))": "29.6 (inactive)"}, {"smiles": "COc1ccc(NC(=O)/C(C#N)=C/c2ncc([N+](=O)[O-])n2C)c(OC)c1", "GFP fluorescence, lower = active (kMESF (background-subtracted))": "41.5 (inactive)"}, {"smiles": "O=C(/C=C/c1cc(Br)ccc1O)c1ccco1", "GFP fluorescence, lower = active (kMESF (background-subtracted))": "33.5 (inactive)"}, {"smiles": "CS(=O)(=O)c1nc(-c2ccccc2)cc(C(F)(F)F)n1", "GFP fluorescence, lower = active (kMESF (background-subtracted))": "31.9 (inactive)"}, {"smiles": "Cn1c(=O)c(C(=O)NNC(=O)c2ccc(Br)cc2)c(O)c2ccccc21", "GFP fluorescence, lower = active (kMESF (background-subtracted))": "22.3 (inactive)"}, {"smiles": "Nc1nc2ncc(CNc3ccc(C(=O)N[C@@H](CCC(=O)O)C(=O)O)cc3)nc2c(=O)[nH]1", "GFP fluorescence, lower = active (kMESF (background-subtracted))": "37 (inactive)"}, {"smiles": "Cc1ccccc1N1C(=O)C(Cl)=C(N2CCN(c3ccccc3)CC2)C1=O", "GFP fluorescence, lower = active (kMESF (background-subtracted))": "39.3 (inactive)"}, {"smiles": "CCCCCCCCC/C(=N\\O)c1ccccn1", "GFP fluorescence, lower = active (kMESF (background-subtracted))": "38.8 (inactive)"}, {"smiles": "CCC(=O)Nc1ccc(NC(=O)c2cc3ccccc3o2)c(OC)c1", "GFP fluorescence, lower = active (kMESF (background-subtracted))": "40.4 (inactive)"}, {"smiles": "Cc1ccc(/C=N/Nc2ncc(Cl)cc2Cl)s1", "GFP fluorescence, lower = active (kMESF (background-subtracted))": "43.1 (inactive)"}, {"smiles": "CCN(CC(=O)NC(C)(C)C)C(=O)COc1c(Cl)cc(Cl)c2ccc(C)nc12", "GFP fluorescence, lower = active (kMESF (background-subtracted))": "50.3 (inactive)"}, {"smiles": "Cc1[nH]n(-c2ccccc2)c(=O)c1C(c1ccccc1[N+](=O)[O-])C(C#N)C#N", "note": "(stereo not given)", "GFP fluorescence, lower = active (kMESF (background-subtracted))": "24.7 (inactive)"}, {"smiles": "CCSc1nnc(NC(=O)c2ccccn2)s1", "GFP fluorescence, lower = active (kMESF (background-subtracted))": "50 (inactive)"}, {"smiles": "CC(C)[C@@]1(c2ccc(Cl)cc2)ON(c2ccccc2C(F)(F)F)C1=O", "GFP fluorescence, lower = active (kMESF (background-subtracted))": "39.1 (inactive)"}, {"smiles": "O=C(Oc1oc(-c2ccco2)nc1C=Nc1ccccc1)c1ccco1", "GFP fluorescence, lower = active (kMESF (background-subtracted))": "38.5 (inactive)"}, {"smiles": "O=[N+]([O-])c1ccc(S(=O)(=O)c2ccccc2)nc1", "GFP fluorescence, lower = active (kMESF (background-subtracted))": "29.6 (inactive)"}, {"smiles": "O=C(Nc1cccc(-c2csc(Nc3ccccc3)n2)c1)c1ccccc1", "GFP fluorescence, lower = active (kMESF (background-subtracted))": "33.7 (inactive)"}, {"smiles": "CC(OC(=O)c1ccco1)C(=O)Nc1nc(-c2ccccc2)cs1", "note": "(stereo not given)", "GFP fluorescence, lower = active (kMESF (background-subtracted))": "37.1 (inactive)"}, {"smiles": "Cc1cccnc1Nc1nc(-c2ccccn2)cs1", "GFP fluorescence, lower = active (kMESF (background-subtracted))": "33.3 (inactive)"}, {"smiles": "COc1ccc(Cl)cc1C(Nc1cccnc1)c1ccc2cccnc2c1O", "note": "(stereo not given)", "GFP fluorescence, lower = active (kMESF (background-subtracted))": "42.8 (inactive)"}, {"smiles": "Cc1cc(C2CCCCC2)n(O)c(=O)c1", "GFP fluorescence, lower = active (kMESF (background-subtracted))": "42.8 (inactive)"}, {"smiles": "Cc1ccc(C(=O)Oc2oc(-c3ccccc3)nc2C=Nc2ccc(N(C)C)cc2)cc1", "GFP fluorescence, lower = active (kMESF (background-subtracted))": "38.8 (inactive)"}, {"smiles": "Cc1ccc(S(=O)(=O)/N=C(\\Sc2ccccc2)c2ccccc2)cc1", "GFP fluorescence, lower = active (kMESF (background-subtracted))": "42 (inactive)"}]}]}
